Assay results: ChEMBL document CHEMBL5352412, “Discovery of 1,2-diphenylethene derivatives as human DNA topoisomerase II catalytic inhibitors and antitumor agents” (Eur J Med Chem, 2022)
Activity calls are given as the source filed them. The calls are words filed in the database; no cut-off is given here.

Legend:
[1] = biological target: T1, DNA topoisomerase 2-alpha (Homo sapiens, UniProt P11388); experiment: Inhibition of human topoisomerase 2-alpha assessed as reduction in relaxation of pBR322 DNA at 25 uM measured after 30 mins by agarose gel electrophoresis method relative to control
HeLa = experiment: Antiproliferative activity against human HeLa cells incubated for 72 hrs by CCK8 assay; assay type: functional, cell-based
HepG2 [2] = experiment: Induction of apoptosis in human HepG2 cells assessed as necrotic cells at 0.5 uM incubated for 24 hrs by annexin-V FITC and PI staining based flow cytometry analysis (reference value: 0.2%); assay type: functional
[3] = biological target: T1, DNA topoisomerase 2-alpha; experiment: Inhibition of human topoisomerase 2-alpha assessed as DNA intercalation at 100 to 200 uM using pBR322 DNA as substrate measured after 30 mins by agarose gel electrophoresis analysis; conditions: dose 100-200 µM
[4] = biological target: T1, DNA topoisomerase 2-alpha; experiment: Inhibition of human topoisomerase 2-alpha assessed as reduction in relaxation of pBR322 DNA measured after 30 mins by agarose gel electrophoresis method
HepG2 [5] = experiment: Induction of apoptosis in human HepG2 cells assessed as late apoptotic cells at 1 uM incubated for 24 hrs by annexin-V FITC and PI staining based flow cytometry analysis (reference value: 2.3%); assay type: functional
Homo sapiens [6] = species: Homo sapiens; experiment: Selectivity index, ratio of IC50 for human CCL-226 cells to IC50 for human PC-3 cells
[7] = biological target: T1, DNA topoisomerase 2-alpha; experiment: Poison activity at human topoisomerase 2-alpha assessed as linear DNA formation at 100 to 200 microM; conditions: dose 100-200 µM
[8] = biological target: T1, DNA topoisomerase 2-alpha; experiment: Inhibition of human topoisomerase 2-alpha using pBR322 DNA as substrate incubated for 1 hr in presence of ATP by malachite green phosphate method
Homo sapiens [9] = species: Homo sapiens; experiment: Selectivity index, ratio of IC50 for human CCL-226 cells to IC50 for human HepG2 cells
HepG2 [10] = experiment: Induction of cell cycle arrest in human HepG2 cells assessed as accumulation of cells at G2/M phase at 0.5 uM incubated for 24 hrs by PI staining based flow cytometry analysis (reference value: 17.5%); assay type: functional
[11] = Selectivity index, ratio of IC50 for human HL-7702 cells to IC50 for human MDA-MB-231 cells; assay type: toxicity; conditions: HL-7702 cells versus MDA-MB-231 cells, read-out: Ratio IC50
[12] = Selectivity index, ratio of IC50 for human BEAS-2B cells to IC50 for human HepG2 cells; assay type: toxicity; conditions: BEAS-2B cells versus HepG2 cells, read-out: Ratio IC50
HepG2 [13] = experiment: Antiproliferative activity against human HepG2 cells incubated for 72 hrs by CCK8 assay; assay type: functional, cell-based; conditions: Homo sapiens, HepG2, 72 h
MDA-MB-231 = experiment: Antiproliferative activity against human MDA-MB-231 cells incubated for 72 hrs by CCK8 assay; assay type: functional, cell-based; conditions: Homo sapiens, MDA-MB-231, 72 h
[14] = Antiproliferative activity against human HL7702 cells incubated for 72 hrs by CCK8 assay; assay type: toxicity, cell-based; conditions: HL7702 (L02) cells
[15] = Selectivity index, ratio of IC50 for human HL-7702 cells to IC50 for human HepG2 cells; assay type: toxicity; conditions: HL-7702 cells versus HepG2 cells, read-out: Ratio IC50
[16] = Antiproliferative activity against human BEAS-2B cells incubated for 72 hrs by CCK8 assay; assay type: toxicity, cell-based
[17] = Toxicity in C57BL/6J mouse assessed as change in body weight at 500 mg/kg administered via gavage twice at day 1 and measured for 7 days; assay type: organism-based; conditions: in vivo, po, 168 h, time 7 day
HepG2 [18] = experiment: Induction of apoptosis in human HepG2 cells assessed as early apoptotic cells at 1 uM incubated for 24 hrs by annexin-V FITC and PI staining based flow cytometry analysis (reference value: 3.7%); assay type: functional
A549 = experiment: Antiproliferative activity against human A549 cells incubated for 72 hrs by CCK8 assay; assay type: functional, cell-based; conditions: A549, 72 h
Homo sapiens [19] = species: Homo sapiens; experiment: Selectivity index, ratio of IC50 for human CCL-226 cells to IC50 for human A549 cells
[20] = Selectivity index, ratio of IC50 for human BEAS-2B cells to IC50 for human PC-3 cells; assay type: toxicity; conditions: BEAS-2B cells versus PC-3 cells, read-out: Ratio IC50
HepG2 [21] = experiment: Upregulation of gamma-H2AX level in human HepG2 cells incubated for 4 hrs by Western blotting analysis; assay type: functional, cell-based
[22] = Selectivity index, ratio of IC50 for human HL-7702 cells to IC50 for human PC-3 cells; assay type: toxicity; conditions: HL-7702 cells versus PC-3 cells, read-out: Ratio IC50
HepG2 [23] = experiment: Induction of cell cycle arrest in human HepG2 cells assessed as accumulation of cells at S phase at 0.5 uM incubated for 24 hrs by PI staining based flow cytometry analysis (reference value: 28.2%); assay type: functional
[24] = Selectivity index, ratio of IC50 for human HL-7702 cells to IC50 for human A549 cells; assay type: toxicity; conditions: HL-7702 cells versus A549 cells, read-out: Ratio IC50
[25] = Selectivity index, ratio of IC50 for human BEAS-2B cells to IC50 for human HeLa cells; assay type: toxicity; conditions: BEAS-2B cells versus HeLa cells, read-out: Ratio IC50
[26] = Selectivity index, ratio of IC50 for human HL-7702 cells to IC50 for human HCT-116 cells; assay type: toxicity; conditions: HL-7702 cells versus HCT-116 cells, read-out: Ratio IC50
Homo sapiens [27] = species: Homo sapiens; experiment: Selectivity index, ratio of IC50 for human CCL-226 cells to IC50 for human HeLa cells
[28] = biological target: T1, DNA topoisomerase 2-alpha; experiment: Inhibition of human topoisomerase 2-alpha using pBR322 DNA as substrate incubated for 30 mins in presence of 0.5 to 5 mM ATP (reference value: 3.4 microM)
HepG2 [29] = experiment: Induction of cell cycle arrest in human HepG2 cells assessed as accumulation of cells at G1 phase at 1 uM incubated for 24 hrs by PI staining based flow cytometry analysis (reference value: 54%); assay type: functional
Homo sapiens [30] = species: Homo sapiens; experiment: Selectivity index, ratio of IC50 for human CCL-226 cells to IC50 for human HCT-116 cells
HepG2 [31] = experiment: Induction of cell cycle arrest in human HepG2 cells assessed as accumulation of cells at S phase at 1 uM incubated for 24 hrs by PI staining based flow cytometry analysis (reference value: 28.2%); assay type: functional
PC-3 = experiment: Antiproliferative activity against human PC-3 cells incubated for 72 hrs by CCK8 assay; assay type: functional, cell-based; conditions: PC-3, 72 h
[32] = Antiproliferative activity against human CCL-226 cells incubated for 72 hrs by CCK8 assay; assay type: toxicity, cell-based
HepG2 [33] = experiment: Induction of apoptosis in human HepG2 cells assessed as early apoptotic cells at 0.5 uM incubated for 24 hrs by annexin-V FITC and PI staining based flow cytometry analysis (reference value: 3.7%); assay type: functional
[34] = Selectivity index, ratio of IC50 for human BEAS-2B cells to IC50 for human HCT-116 cells; assay type: toxicity; conditions: BEAS-2B cells versus HCT-116 cells, read-out: Ratio IC50
[35] = Selectivity index, ratio of IC50 for human BEAS-2B cells to IC50 for human A549 cells; assay type: toxicity; conditions: BEAS-2B cells versus A549 cells, read-out: Ratio IC50

T1 sequence (P11388 whole entry): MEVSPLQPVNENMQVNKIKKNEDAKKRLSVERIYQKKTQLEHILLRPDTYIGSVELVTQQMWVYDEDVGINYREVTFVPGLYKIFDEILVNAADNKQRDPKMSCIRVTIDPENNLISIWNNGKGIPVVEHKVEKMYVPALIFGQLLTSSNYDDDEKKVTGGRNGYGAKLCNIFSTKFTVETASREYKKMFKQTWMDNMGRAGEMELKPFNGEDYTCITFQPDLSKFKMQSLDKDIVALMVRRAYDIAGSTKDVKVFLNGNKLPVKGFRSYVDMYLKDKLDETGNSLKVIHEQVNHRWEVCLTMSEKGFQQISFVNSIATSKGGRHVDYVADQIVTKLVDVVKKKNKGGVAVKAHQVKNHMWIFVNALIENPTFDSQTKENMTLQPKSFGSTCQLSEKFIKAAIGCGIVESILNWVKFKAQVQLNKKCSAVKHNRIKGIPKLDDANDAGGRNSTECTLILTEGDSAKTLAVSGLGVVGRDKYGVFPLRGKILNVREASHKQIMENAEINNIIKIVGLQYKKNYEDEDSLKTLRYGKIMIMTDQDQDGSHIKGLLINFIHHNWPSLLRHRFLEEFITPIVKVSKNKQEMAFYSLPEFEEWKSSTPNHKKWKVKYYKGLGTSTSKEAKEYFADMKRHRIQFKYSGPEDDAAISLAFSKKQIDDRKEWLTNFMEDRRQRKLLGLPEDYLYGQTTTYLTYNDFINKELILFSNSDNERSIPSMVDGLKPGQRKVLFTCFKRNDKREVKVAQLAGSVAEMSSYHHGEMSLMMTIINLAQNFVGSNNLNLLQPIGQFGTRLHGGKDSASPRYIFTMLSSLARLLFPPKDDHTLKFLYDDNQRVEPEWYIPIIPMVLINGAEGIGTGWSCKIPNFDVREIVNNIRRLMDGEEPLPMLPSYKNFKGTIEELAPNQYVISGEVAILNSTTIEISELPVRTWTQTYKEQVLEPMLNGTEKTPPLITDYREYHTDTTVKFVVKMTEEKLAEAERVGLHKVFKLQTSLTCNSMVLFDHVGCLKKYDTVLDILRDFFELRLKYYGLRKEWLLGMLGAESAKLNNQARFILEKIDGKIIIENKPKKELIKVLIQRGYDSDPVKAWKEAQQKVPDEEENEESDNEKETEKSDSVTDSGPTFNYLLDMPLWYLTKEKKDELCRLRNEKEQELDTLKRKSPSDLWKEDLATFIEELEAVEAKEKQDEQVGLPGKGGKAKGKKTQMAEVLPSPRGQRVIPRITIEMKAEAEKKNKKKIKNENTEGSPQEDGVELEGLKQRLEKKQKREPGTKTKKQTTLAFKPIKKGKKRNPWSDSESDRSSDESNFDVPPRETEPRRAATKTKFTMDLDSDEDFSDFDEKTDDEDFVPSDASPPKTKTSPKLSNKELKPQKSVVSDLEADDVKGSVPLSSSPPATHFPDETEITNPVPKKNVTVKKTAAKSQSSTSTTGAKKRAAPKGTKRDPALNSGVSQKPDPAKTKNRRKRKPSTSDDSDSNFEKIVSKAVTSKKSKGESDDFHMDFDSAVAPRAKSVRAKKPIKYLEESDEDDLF

Compound: O=C(CCc1ccccc1)Nc1ccc(-c2ccc3cc(O)ccc3c2)cc1
- inhibition [1]: 84.6%
- IC50 (HeLa): 100 nM
- Activity (HepG2 [2]): 0.1%
- inhibition [3]: inactive
- IC50 [4]: 3800 nM
- Activity (HepG2 [5]): 46.1%
- Ratio IC50 (Homo sapiens [6]): > 52.1
- Activity [7]: inactive
- inhibition [8]: Dose-Dependent Effect
- Ratio IC50 (Homo sapiens [9]): > 52.1
- Activity (HepG2 [10]): 48.9%
- selectivity ratio [11]: > 52.1
- selectivity ratio [12]: > 52.1
- IC50 (HepG2 [13]): 300 nM
- IC50 (MDA-MB-231): 200 nM
- IC50 at 72 h [14]: 16700 nM
- selectivity ratio [15]: > 52.1
- IC50 at 72 h [16]: 31900 nM
- Activity [17]: Non-Toxic
- Activity (HepG2 [18]): 24.5%
- IC50 (A549): 300 nM
- Ratio IC50 (Homo sapiens [19]): > 52.1
- selectivity ratio [20]: > 52.1
- Activity (HepG2 [21]): inactive
- selectivity ratio [22]: > 52.1
- Activity (HepG2 [23]): 32%
- selectivity ratio [24]: > 52.1
- selectivity ratio [25]: > 52.1
- selectivity ratio [26]: > 52.1
- Ratio IC50 (Homo sapiens [27]): > 52.1
- IC50 [28]: 13400 nM
- Activity (HepG2 [29]): 3.3%
- Ratio IC50 (Homo sapiens [30]): > 52.1
- Activity (HepG2 [31]): 11.2%
- IC50 (PC-3): 300 nM
- IC50 at 72 h [32]: > 50000 nM
- Activity (HepG2 [33]): 14%
- selectivity ratio [34]: > 52.1
- selectivity ratio [35]: > 52.1
